Results on five compounds are retold here after paper PMC9822940, “Antiplasmodial activity, structure–activity relationship and studies on the action of novel benzimidazole derivatives” (Scientific Reports, 2023).

In one series the test system is P. falciparum HB3 strain. In words: Antiplasmodial activity against P. falciparum HB3 strain in culture. The class given is cell-based, Plasmodium falciparum. The following applies: for IC50 / inhibition at 10 µM: Plasmodium falciparum; for IC50: HB3 strain (chloroquine-sensitive), read-out: IC50; for inhibition at 10 µM: HB3 strain, read-out: GI (growth inhibition percentage); for SI (selectivity index): Vero CC50 versus HB3 IC50. The method, then: (§1) In vitro activity of BZ. All BZ derivatives were tested at 10 μM against the HB3 strain of Pf, and for those compounds with a percentage of growth inhibition (% GI) higher than 50%, the IC50 values were determined. In addition, their cytotoxicity on epithelial Vero cell cultures was evaluated to calculate their selectivity indexes (SI), Table 1. An index of 10 or above is expected for a lead compound.
(§2) The chloroquine-sensitive […] and chloroquine-resistance 7G8 strain […] of P. falciparum were used throughout. Infected erythrocytes were kept in culture using the protocol established by Haynes et al.[44], basically utilizing human O^+ erythrocytes kept in an RPMI medium supplemented with glutamine and 10% human serum incubated in an atmosphere of 90% N2, 5% O2 and 5% CO2.

The nature of series [1]: Cytotoxicity on epithelial Vero cell cultures. The following applies: African green monkey, epithelial Vero cells. The class given is cell-based. The method, then: as §1
Series [2] concerns 7G8 P. falciparum parasites. In words: Antiplasmodial activity against chloroquine-resistant 7G8 P. falciparum. The class given is cell-based, Plasmodium falciparum. The following applies: for IC50: Plasmodium falciparum, 7G8 strain (chloroquine-resistant), read-out: 7G8 Pf IC50; for SI (selectivity index): Vero CC50 versus 7G8 IC50.
Description: (§3) The mechanism used by Pf to prevent intoxication with free heme once hemoglobin is degraded is to form hemozoin crystals that capture heme. Mefloquine and other common antimalarials interfere with this pathway, resulting in the death of the parasite.
as §2

In series [3] the test system is plasma membrane of parasite culture / erythrocytes. In words: Propidium iodide incorporation assay (membrane integrity). The class given is cell-based, Plasmodium falciparum. The conditions noted are these: 3 h incubation, fluorometry. The method, then:
The integrity of the plasma membrane under the action of certain antiplasmodial compounds was assessed through the use of two methodologies. First, the absorption of propidium iodide, to which intact membranes are impermeable, was measured. Second, the presence of heme in the culture media, which indicates a leakage of the contents of the erythrocyte or its complete lysis (hemolysis), was analyzed.
Figure 3 Membrane integrity tests. BZ 1, 5, 16, 26 and 33 were tested in triplicates in two independent experiments. (a) Incorporation of propidium iodide (PI) was analyzed through fluorometry after 3 h incubation with the compounds. (b) Hemolysis was measured by light absorbance 24 h after exposure to the compounds. One-way ANOVA with Turkey´s comparison was used for analysis of significance. ****p < 0.001.
Manufacturer’s instructions (BD PharmingenTM) were followed. Briefly, 200 µL of parasite culture at 2% parasitemia or uninfected erythrocytes, at 2% hematocrit, were incubated with each compound for 3 h at 37 °C. Untreated samples were cultured in the same plate. After incubation, 2 µL of Propidium Iodide was added and incubated for 15 min at RT while protected from light. Fluorescence was read in a fluorometer at excitation and emission wavelengths of 485/20 and 645/40 nm, respectively.

Series [4] deals with P. falciparum-infected cultures. In words: Intracellular reactive oxygen species (ROS) production in P. falciparum. The class given is cell-based, Plasmodium falciparum. The conditions noted are these: 1 µM; 0.5, 6 and 9 h. As for the experimental part: Also, the intracellular production of oxygen reactive species (ROS) was monitored for the same antiplasmodial compounds. The level of ROS production was compared between the samples and that of the untreated parasites. […] This would point to the conformation of such molecules targeting a specific molecule or process of the parasite.  Figure 4 Effect of selected benzimidazole derivatives on ROS production. Five potent compounds were incubated with P. falciparum-infected cultures and the production of reactive oxygen species was measured through fluorometry at 0.5, 6 and 9 h after their addition at 1 µM. As positive control, a sample containing hydrogen peroxide at 200 μM was added. Samples were measured in triplicates. One-way ANOVA with Turkey´s comparison was used to measure significance with respect to the untreated control at each different time point. n = 2. (a) BZ 1, (b) BZ 5, (c) BZ 16, (d) BZ 26 and (e) BZ 33. *p < 0.05, **p < 0.01, ***p < 0.005. Intracellular ROS formation was measured in a fluorimeter using the CM-H2DCFDA reactive dye from Molecular Probes® (Eugene OR, USA). Hydrogen peroxide was used as a positive control at a final concentration of 200 µM. The level of ROS present was inferred through the amount of oxidized DCF[45].

For series [5], the system named is mitochondria of P. falciparum parasites. In words: Mitochondrial membrane potential measurement. The following applies: 1 µM. The class given is cell-based, Plasmodium falciparum. The method, then:
Changes in mitochondrial membrane potential, another common hallmark of programed cell death, were analyzed in the samples that had promising activities toward P. falciparum cultures. The results of adding 1 µM of each compound can be seen in Fig. 5. […] This could probably be explained by the presence of the unsubstituted picolinamide fragment, therefore more polar and less soluble in the membrane, making it harder or slower to permeate into the erythrocyte and then into the parasite, with respect to the other three.  Figure 5 Changes to mitochondrial membrane potential caused by antiplasmodial compounds. Fluorometry was used to measure the effects on the mitochondria of P. falciparum parasites caused by treatment with compounds that show activity against their growth in culture. A membrane disruptor (CCCP) was added as a positive control and untreated cultures were used as the negative one. All compounds were tested at 1 µM in triplicates, n = 3. (a) BZ 1, (b) BZ 5, (c) BZ 16, (d) BZ 26 and (e) BZ 33. *p < 0.05, **p < 0.01, ***p < 0.005. The membrane potential was measured in a flow cytometer after staining P. falciparum cultures with the DiOC6(3) dye at 10 nM (Thermo Fisher, Waltham, MA, USA). Samples were incubated for 45 min at 37 °C in the dark. Following incubation, cells were washed and resuspended using 200 µL of phosphate-buffered saline (PBS) and analyzed immediately after. The mitochondrial membrane disrupter, CCCP (50 µM), incubated for 1 h, was used as a positive control. The fluorescence intensity of stained cells was calculated using FCS Express 4 (De Novo Software, Glendale, CA, USA). As negative control, uninfected red blood cells were used and their signal was subtracted from that of the infected red blood cells.

The test system of series [6] is hemozoin biocrystallization in P. falciparum. In words: Hemozoin biocrystallization / beta-hemozoin formation. The class given is cell-based, Plasmodium falciparum. The conditions noted are these: Pf cultures, 36 h.
Description: as §3

For orientation: IC50 means the concentration that gives 50% inhibition. For orientation: inhibition means the percentage by which the read-out fell short of the control. As a reminder, the CC50 is the concentration giving 50% cytotoxicity. Low values mean harm at low concentration, high ones better tolerance by the cells. By melting point is commonly meant the temperature, or range, at which the solid turns liquid.

Regarding `Cc1ccc2[nH]c(NC(=O)c3ccccn3)nc2c1` [BZ 1, N-(5-methyl-1H-benzimidazol-2-yl)picolinamide], in the series on P. falciparum HB3 strain, the IC50 was 980 nM and the inhibition at 10 µM amounted to 93.5%. In series [1], this compound registered a half-maximal cytotoxic concentration (CC50) of 14800 nM. Also, in series [2], the concentration for half-maximal inhibition (IC50) turned out to be 950 nM and the “SI (selectivity index)” value was 15.6. Further, in series [3], the “Membrane integrity: incorporation of propidium iodide” value (“Membrane integrity: incorporation” for short) is recorded as “best in keeping the membrane well preserved”. For the same compound, the “Intracellular ROS production versus untreated parasites” value in series [4] is “early significant decrease in the natural level of ROS”. For the same compound, the “Change in mitochondrial membrane potential versus untreated control” value (“Change” below) in series [5] is “do not show a difference with the untreated control up to t = 6 h”.

As to `Cc1cc2nc(NC(=O)c3ccccn3)[nH]c2cc1C` [BZ 33, N-(5,6-Dimethyl-1H-benzimidazol-2-yl)picolinamide], in the series on P. falciparum HB3 strain, the concentration for half-maximal inhibition (IC50) stood at 850 nM and the inhibition at 10 µM is 100%. The compound further had a 50% cytotoxic concentration (CC50) in series [1] of 13200 nM. In addition, in series [3], the “Membrane integrity: incorporation” value is reported as “best in keeping the membrane well preserved”. The “Intracellular ROS production versus untreated parasites” value in series [4] is “early significant decrease in the natural level of ROS”. Further, in series [5], the “Change” value was “do not show a difference with the untreated control up to t = 6 h”.

Regarding `COc1ccc2[nH]c(NC(=O)c3ccc(C)cn3)nc2c1` [BZ 26, N-(5-Methoxy-1H-benzimidazol-2-yl)-5-methylpicolinamide], in the series on P. falciparum HB3 strain, the IC50 is 3300 nM, the inhibition at 10 µM stood at 93.5% and the “SI (selectivity index)” value came to 3.4. Besides, the CC50 in series [1] worked out at 11100 nM. Further, in series [3], the “Membrane integrity: incorporation” value is on record as “some permeation in the membrane, although not significant”. Further, in series [4], the “Intracellular ROS production versus untreated parasites” value is on record as “no significant difference at any point”. In addition, the “Change” value in series [5] is on record as “shows an effect from t = 6 h onward”.

With `Cc1ccc(C(=O)Nc2nc3cc(Cl)ccc3[nH]2)nc1` [BZ 16, N-(5-Chloro-1H-benzimidazol-2-yl)-5-methylpicolinamide], in the series with P. falciparum HB3 strain, the IC50 is 2400 nM, the inhibition at 10 µM came out at 85.6% and the “SI (selectivity index)” value stood at 3.0. Besides, in series [1], the CC50 is 7200 nM. Besides, in series [2], the concentration for half-maximal inhibition (IC50) amounted to 2600 nM and the “SI (selectivity index)” value was 2.7. Further, the “Membrane integrity: incorporation” value in series [3] is on record as “some permeation in the membrane, although not significant”. Moreover, the “Intracellular ROS production versus untreated parasites” value in series [4] is “no significant difference at any point”. Also, in series [6], the “Interference with hemozoin biocrystallization” value was “small level of disruption”.

The compound `Cc1ccc(C(=O)Nc2nc3cc(C)ccc3[nH]2)nc1` [BZ 5, 5-Methyl-N-(5-methyl-1H-benzimidazol-2-yl)picolinamide] displayed a melting point of 256 °C. For the same compound, in the series on P. falciparum HB3 strain, the concentration for half-maximal inhibition (IC50) is 1500 nM and the inhibition at 10 µM came to 100%. Moreover, in series [1], it took 4500 nM to reach half-maximal cytotoxicity (CC50). In addition, the “Membrane integrity: incorporation” value in series [3] is listed as “some permeation in the membrane, although not significant”. Also, the “Intracellular ROS production versus untreated parasites” value in series [4] is listed as “no significant difference at any point”.
